In patent publication US9808434B2, “Compound for treating cancer and diabetes” (CITY OF HOPE, priority 2011, dated 2017):

Columns and labels:
U251 glioma cells = experiment: Intracellular ROS (H2DCFDA+ cells), flow cytometry; type: cell-based; details: 2 or 10 μM, 24 hours
Procedure: Cells of U251 glioma cells or pNHA cell lines were treated with COH-SR4 at a concentration of 0 μM, 2 μM or 10 μM for 24 hours before intracellular ROS was assessed by flow cytometry (representative of 3 runs and samples in triplicate). ROS increased in the glioma cells treated with COH-SR4 as indicated by the increased amounts of H2DCFDA+ cells (FIG. 38).

B16-F0 = experiment: Colony formation assay, B16-F0; type: cell-based, mouse; details: 10 μM, vs untreated control
Procedure: Cell survival was evaluated using a standard colony-forming assay. […] After 7 or 10 days, adherent colonies were fixed, stained with 0.5% methylene blue for 30 min and colonies were counted using the Innotech Alpha Imager HP (91).

H1417 cells = experiment: MTT assay, H1417; type: cell-based; details: Homo sapiens, NCI-H1417, 48 h
Procedure: Cell density measurements were performed using a hemocytometer to count reproductive cells resistant to staining with trypan blue. Approximately 20,000 cells were plated into each well of 96-well flat-bottomed micro-titer plates. After 12 h or 24 h incubation at 37° C., medium containing either COH-SR4 (ranging 0-200 μM) or elesclomol (ranging 0-20 μM) were added to the cells. After 24 h, 48 h or 96 h incubation, 20 μL of 5 mg/mL MTT were introduced to each well and incubated for 2 h. The plates were centrifuged and medium was decanted. Cells were subsequently dissolved in 100 μl DMSO with gentle shaking for 2 h at room temperature, followed by measurement of OD570 (91).
The effect of COH-SR4 was first examined in a NCI panel of cancer cell lines, the results of which indicated good activity of COH-SR4 towards lung cancer (FIG. 78A). […] Values are presented as mean±SD from two separate determinations with eight replicates each (n=16) (FIG. 78B). […] Standard colony-forming assay was performed and the colonies were counted using Innotech Alpha Imager HP. […] TUNEL assay was performed using Promega fluorescence detection kit and examined using Zeiss LSM 510 META laser-scanning fluorescence microscope with filters 520 and 620 nm. […]

[1] = system: mouse C2C12, HepG2, and 3T3-L1 cells; experiment: Oxygen consumption rate in myotubes, liver cells, adipocytes; type: cell-based
Procedure: Oxygen consumption rate (OCR), a measure of OxPhos, and extracellular acidification rate (ECAR), a measure of lactate production by glycolysis, were measured using a Seahorse Xf^e96 Flux Analyzers (Seahorse Biosciences, North Billerica, Mass.). Cells were seeded in DMEM media in Seahorse 96-well tissue culture plates at a density of 5×10^3 cells/well and allowed to adhere for 24 h. Prior to the assay, the media was changed to unbuffered DMEM containing 25 mM glucose, 1 mM pyruvate and 1 mM glutamine, with 0.2% fatty acid/endotoxin-free BSA (w/v) (pH 7.4) and the cells were equilibrated for 30 min at 37° C. Test compounds were injected during the assay and OCR and ECAR were measured using 2-3 min measurement periods. Similar sets of experiments were performed in the presence of the mitochondria recoupler agent 6-KCH or the mitochondrial permeability transition (MPT) pore blocker CSA, where each compound was injected into the assay media prior to COH-SR4 or FCCP injection. In separate experiments with A2058 and A2058 p° cells, a modified Mitostress test was performed accordingly per Seahorse protocols (89, 90). […] OCR was measured throughout the different injections of the stressors and test compounds (indicated by arrows in the figures). […]

PBT-017 glioma cells = experiment: Apoptosis of PBT-017 glioma cells, cell counts; type: cell-based; details: 2 or 10 μM, 4 days
Procedure: PBT-017 glioma cells were incubated with nothing (control), DMSO, and COH-SR4 at 2 μM or 10 μM for 4 days.

SK-Mel-5 = experiment: Colony formation assay, SK-Mel-5; type: cell-based, human; details: 5 μM
Procedure: (§1) Cell survival was evaluated using a standard colony-forming assay. In total, 1×10^5 cells/mL were incubated with COH-SR4 (1.5 μM or 5 μM) or elesclomol (5 μM) for 24 h, and aliquots of 50 or 100 μL were added to 60 mm size petri dishes, containing 4 mL culture medium. After 7 or 10 days, adherent colonies were fixed, stained with 0.5% methylene blue for 30 min and colonies were counted using the Innotech Alpha Imager HP (91).

H1618 = experiment: Colony formation assay, H1618; type: cell-based, human; details: 1.5 μM
Procedure: as §1
The effect of COH-SR4 was first examined in a NCI panel of cancer cell lines, the results of which indicated good activity of COH-SR4 towards lung cancer (FIG. 78A). […] Values are presented as mean±SD from two separate determinations with eight replicates each (n=16) (FIG. 78B). The COH-SR4 treatment exerted a significant inhibitory effect on the survival of lung cancer cells [IC50: H1417 cells-1.2±0.2 μM, H1618 cells-1.5±0.2 μM, H358 cells-2.1±0.2 μM and H520 cells-2.4±0.3 μM]. […] Following initial screening for the anticancer activity of COH-SR4, the effect of COH-SR4 on clonogenic potential was studied. Standard colony-forming assay was performed and the colonies were counted using Innotech Alpha Imager HP. […] The effect of COH-SR4 on induction of apoptosis was further investigated. […] TUNEL assay was performed using Promega fluorescence detection kit and examined using Zeiss LSM 510 META laser-scanning fluorescence microscope with filters 520 and 620 nm. […]

[2] = system: human melanoma cells (SK-MEL28, A2058, A101D); experiment: Oxygen consumption rate in melanoma cells, Seahorse; type: cell-based; details: 1-10 μM, monitored 2 h
Procedure: Oxygen consumption rate (OCR), a measure of OxPhos, and extracellular acidification rate (ECAR), a measure of lactate production by glycolysis, were measured using a Seahorse Xf^e96 Flux Analyzers (Seahorse Biosciences, North Billerica, Mass.). Cells were seeded in DMEM media in Seahorse 96-well tissue culture plates at a density of 5×10^3 cells/well and allowed to adhere for 24 h. Prior to the assay, the media was changed to unbuffered DMEM containing 25 mM glucose, 1 mM pyruvate and 1 mM glutamine, with 0.2% fatty acid/endotoxin-free BSA (w/v) (pH 7.4) and the cells were equilibrated for 30 min at 37° C. Test compounds were injected during the assay and OCR and ECAR were measured using 2-3 min measurement periods. […] OCR was measured throughout the different injections of the stressors and test compounds (indicated by arrows in the figures).
The importance of mitochondria as oxygen sensors as well as producers of ATP and ROS has recently become a focal point of cancer research. […] OCR was continuously monitored for 2 h. Mitochondria recoupler 6-KCH (200 μM) was added to the assay system prior to injection of COH-SR4 (5 μM) as shown by arrows and OCR of A101D cells were monitored (FIG. 37B). […]

NHDF = experiment: Colony formation assay, NHDF; type: cell-based, human; details: FIG. 67B, 5 μM, vs untreated control
Procedure: as §1

For O=C(Nc1cc(Cl)cc(Cl)c1)Nc1cc(Cl)cc(Cl)c1 [COH-SR4, 1,3-bis(3,5-dichlorophenyl) urea], the “intracellular ROS (H2DCFDA+ cells)” value (U251 glioma cells) was “ROS increased”, the colony formation (B16-F0) was 38±9% and the IC50 (H1417 cells) was 1200 ± 200 nM. The OCR [1] was “dose- and time dependently increased the OCR”, the “fraction of apoptotic cells” value (PBT-017 glioma cells) was “increased the fraction of apoptotic cells” and the colony formation (SK-Mel-5) was 22±8%. For the same compound, the colony formation (H1618) was 48±9%, the “oxygen consumption rate (OCR)” value [2] was “increased OCR in a time-dependent and dose-dependent manner” and the colony forming potential (NHDF) was 97±3%.
